Results: patent US6706740B2, “Fungicidal heterocyclic aromatic amides and their compositions, methods of use and preparation” (Dow AgroSciences LLC, priority 1999, dated 2004)

Tested on: Magnaporthe grisea (Pyricularia oryzae—PYRIOR)
Test: microbe, parasite or virus in culture
Assay type: cell-based
Details: Pyricularia oryzae, read-out: PYRIOR in vitro Growth Inhibition

| SMILES | inhibition at 25 ppm |
| --- | --- |
| CCCCCCCCCCCCCCCCCC(=O)O[C@H]1[C@H](C)OC(=O)[C@@H](NC(=O)c2nccc(OC)c2O)COC(=O)[C@@H]1Cc1ccccc1 [Compound 398] | > 80% |
| COc1ccnc(C(=O)N[C@H]2COC(=O)[C@H](Cc3ccccc3)[C@@H](OC(=O)OC(C)C)[C@H](C)OC2=O)c1O [Compound 401] | > 80% |
| COc1ccnc(C(=O)Nc2cc(C)c(OC(=O)c3ccccc3)c(C)c2)c1O [Compound 456] | < 80% |

Tested on: Rhizoctonia solani (RHIZSO)
Test: microbe, parasite or virus in culture
Assay type: cell-based
Details: Rhizoctonia solani, read-out: RHIZSO in vitro Growth Inhibition

| SMILES | inhibition at 25 ppm |
| --- | --- |
| CCCCCCCCCCCCCCCCCC(=O)O[C@H]1[C@H](C)OC(=O)[C@@H](NC(=O)c2nccc(OC)c2O)COC(=O)[C@@H]1Cc1ccccc1 [Compound 398] | < 80% |
| COc1ccnc(C(=O)N[C@H]2COC(=O)[C@H](Cc3ccccc3)[C@@H](OC(=O)OC(C)C)[C@H](C)OC2=O)c1O [Compound 401] | < 80% |
| COc1ccnc(C(=O)Nc2cc(C)c(OC(=O)c3ccccc3)c(C)c2)c1O [Compound 456] | < 80% |

Tested on: Mycosphaerella graminicola (Septoria tritici—SEPTTR)
Test: In vitro fungal growth inhibition, Mycosphaerella graminicola (SEPTTR)
Assay type: cell-based
Details: Zymoseptoria tritici; 25 ppm in growth medium; read-out: SEPTTR in vitro Growth Inhibition

| SMILES | inhibition at 25 ppm |
| --- | --- |
| CCCCCCCCCCCCCCCCCC(=O)O[C@H]1[C@H](C)OC(=O)[C@@H](NC(=O)c2nccc(OC)c2O)COC(=O)[C@@H]1Cc1ccccc1 [Compound 398] | > 80% |
| COc1ccnc(C(=O)N[C@H]2COC(=O)[C@H](Cc3ccccc3)[C@@H](OC(=O)OC(C)C)[C@H](C)OC2=O)c1O [Compound 401] | > 80% |
| COc1ccnc(C(=O)Nc2cc(C)c(OC(=O)c3ccccc3)c(C)c2)c1O [Compound 456] | > 80% |

Tested on: Stagonospora nodorum (Leptosphaeria nodorum—LEPTNO)
Test: In vitro fungal growth inhibition, Stagonospora nodorum (LEPTNO)
Assay type: cell-based
Details: Leptosphaeria; 25 ppm in growth medium; read-out: LEPTNO in vitro Growth Inhibition

| SMILES | inhibition at 25 ppm |
| --- | --- |
| CCCCCCCCCCCCCCCCCC(=O)O[C@H]1[C@H](C)OC(=O)[C@@H](NC(=O)c2nccc(OC)c2O)COC(=O)[C@@H]1Cc1ccccc1 [Compound 398] | > 80% |
| COc1ccnc(C(=O)N[C@H]2COC(=O)[C@H](Cc3ccccc3)[C@@H](OC(=O)OC(C)C)[C@H](C)OC2=O)c1O [Compound 401] | > 80% |
| COc1ccnc(C(=O)Nc2cc(C)c(OC(=O)c3ccccc3)c(C)c2)c1O [Compound 456] | > 80% |

Tested on: Ustilago maydis (USTIMA)
Test: microbe, parasite or virus in culture
Assay type: cell-based
Details: Mycosarcoma maydis, read-out: USTIMA in vitro Growth Inhibition

| SMILES | inhibition at 25 ppm |
| --- | --- |
| CCCCCCCCCCCCCCCCCC(=O)O[C@H]1[C@H](C)OC(=O)[C@@H](NC(=O)c2nccc(OC)c2O)COC(=O)[C@@H]1Cc1ccccc1 [Compound 398] | < 80% |
| COc1ccnc(C(=O)N[C@H]2COC(=O)[C@H](Cc3ccccc3)[C@@H](OC(=O)OC(C)C)[C@H](C)OC2=O)c1O [Compound 401] | > 80% |
| COc1ccnc(C(=O)Nc2cc(C)c(OC(=O)c3ccccc3)c(C)c2)c1O [Compound 456] | < 80% |

Tested on: Phytophthora infestans (PHYTIN)
Test: microbe, parasite or virus in culture
Assay type: cell-based
Details: Phytophthora infestans, read-out: PHYTIN in vitro Growth Inhibition

| SMILES | inhibition at 25 ppm |
| --- | --- |
| CCCCCCCCCCCCCCCCCC(=O)O[C@H]1[C@H](C)OC(=O)[C@@H](NC(=O)c2nccc(OC)c2O)COC(=O)[C@@H]1Cc1ccccc1 [Compound 398] | < 80% |
| COc1ccnc(C(=O)N[C@H]2COC(=O)[C@H](Cc3ccccc3)[C@@H](OC(=O)OC(C)C)[C@H](C)OC2=O)c1O [Compound 401] | < 80% |
| COc1ccnc(C(=O)Nc2cc(C)c(OC(=O)c3ccccc3)c(C)c2)c1O [Compound 456] | < 80% |

Tested on: Phytophthora infestans—PHYTIN
Test: whole plant or invertebrate
Assay type: in vivo
Details: Phytophthora, in Solanum lycopersicum, 24 h, read-out: PHYTIN in vivo 1 Day Protectant

| SMILES | pest or weed control at 100 ppm |
| --- | --- |
| CCCCCCCCCCCCCCCCCC(=O)O[C@H]1[C@H](C)OC(=O)[C@@H](NC(=O)c2nccc(OC)c2O)COC(=O)[C@@H]1Cc1ccccc1 [Compound 398] | < 25% |
| COc1ccnc(C(=O)N[C@H]2COC(=O)[C@H](Cc3ccccc3)[C@@H](OC(=O)OC(C)C)[C@H](C)OC2=O)c1O [Compound 401] | < 25% |
| COc1ccnc(C(=O)Nc2cc(C)c(OC(=O)c3ccccc3)c(C)c2)c1O [Compound 456] | < 25% |

Tested on: Puccinia recondita—PUCCRT
Test: Brown Rust of Wheat, in vivo whole plant, 24 Hour Protectant
Details: Puccinia; 100 ppm spray, wheat, 24 hour protectant; control of fungal infection vs untreated plants; read-out: PUCCRT in vivo 1 Day Protectant

| SMILES | pest or weed control at 100 ppm |
| --- | --- |
| CCCCCCCCCCCCCCCCCC(=O)O[C@H]1[C@H](C)OC(=O)[C@@H](NC(=O)c2nccc(OC)c2O)COC(=O)[C@@H]1Cc1ccccc1 [Compound 398] | 25 to 74% |
| COc1ccnc(C(=O)N[C@H]2COC(=O)[C@H](Cc3ccccc3)[C@@H](OC(=O)OC(C)C)[C@H](C)OC2=O)c1O [Compound 401] | 25 to 74% |
| COc1ccnc(C(=O)Nc2cc(C)c(OC(=O)c3ccccc3)c(C)c2)c1O [Compound 456] | < 25% |

Tested on: Erysiphe graminis—ERYSGT
Test: Powdery Mildew of Wheat, in vivo whole plant, 24 Hour Protectant
Details: Erysiphe; 100 ppm spray, wheat, 24 hour protectant; control of fungal infection vs untreated plants; read-out: ERYSGT in vivo 1 Day Protectant

| SMILES | pest or weed control at 100 ppm |
| --- | --- |
| CCCCCCCCCCCCCCCCCC(=O)O[C@H]1[C@H](C)OC(=O)[C@@H](NC(=O)c2nccc(OC)c2O)COC(=O)[C@@H]1Cc1ccccc1 [Compound 398] | < 25% |
| COc1ccnc(C(=O)N[C@H]2COC(=O)[C@H](Cc3ccccc3)[C@@H](OC(=O)OC(C)C)[C@H](C)OC2=O)c1O [Compound 401] | < 25% |
| COc1ccnc(C(=O)Nc2cc(C)c(OC(=O)c3ccccc3)c(C)c2)c1O [Compound 456] | < 25% |

Tested on: Septoria tritici—SEPTTR
Test: Leaf Blotch of Wheat, in vivo whole plant, 24 Hour Protectant
Details: Zymoseptoria tritici, 24 h, 100 ppm spray, wheat, 24 hour protectant; control of fungal infection vs untreated plants; read-out: SEPTTR in vivo 1 Day Protectant

| SMILES | pest or weed control at 100 ppm |
| --- | --- |
| CCCCCCCCCCCCCCCCCC(=O)O[C@H]1[C@H](C)OC(=O)[C@@H](NC(=O)c2nccc(OC)c2O)COC(=O)[C@@H]1Cc1ccccc1 [Compound 398] | < 25% |
| COc1ccnc(C(=O)N[C@H]2COC(=O)[C@H](Cc3ccccc3)[C@@H](OC(=O)OC(C)C)[C@H](C)OC2=O)c1O [Compound 401] | 25 to 74% |
| COc1ccnc(C(=O)Nc2cc(C)c(OC(=O)c3ccccc3)c(C)c2)c1O [Compound 456] | 25 to 74% |

Tested on: Leptosphaeria nodorum—LEPTNO
Test: Glume Blotch of Wheat, in vivo whole plant, 24 Hour Protectant
Details: 100 ppm spray, wheat, 24 hour protectant; control of fungal infection vs untreated plants

| SMILES | LEPTNO in vivo 1 Day Protectant |
| --- | --- |
| COc1ccnc(C(=O)N[C@H]2COC(=O)[C@H](Cc3ccccc3)[C@@H](OC(=O)OC(C)C)[C@H](C)OC2=O)c1O [Compound 401] | + + |

Same assay, conditions: Leptosphaeria; 100 ppm spray, wheat, 24 hour protectant; control of fungal infection vs untreated plants; read-out: LEPTNO in vivo 1 Day Protectant

| SMILES | pest or weed control at 100 ppm |
| --- | --- |
| CCCCCCCCCCCCCCCCCC(=O)O[C@H]1[C@H](C)OC(=O)[C@@H](NC(=O)c2nccc(OC)c2O)COC(=O)[C@@H]1Cc1ccccc1 [Compound 398] | < 25% |
| COc1ccnc(C(=O)Nc2cc(C)c(OC(=O)c3ccccc3)c(C)c2)c1O [Compound 456] | < 25% |
